One data set has as its target GSK3β (Homo sapiens, UniProt P49841). The data set can be described thus: Inhibitory activity against GSK3β (33P-ATP phosphorylation of prephosphorylated GS1 peptide). Format: biochemical. Particulars: protocol 4: commercial GSK3beta (Millipore), 7.5 μM GS1 peptide, 10 μM ATP, 50 mM Hepes pH 7.2, 90 minutes at room temperature. As for the experimental part:
Four different protocols can be used. In a first protocol: 7.5 μM of prephosphorylated GS1 peptide and 10 μM ATP (containing 300,000 cpm of ^33P-ATP) were incubated in 25 mM Tris-HCl, pH 7.5, 0.6 mM DTT, 6 mM MgCl2, 0.6 mM EGTA, 0.05 mg/ml BSA buffer for 1 hour at room temperature in the presence of GSK3beta (total reaction volume: 100 microliters). In a second protocol: 4.1 μM of prephosphorylated GS1 peptide and 42 μM ATP (containing 260,000 cpm ^33P-ATP) were incubated in 80 mM Mes-NaOH, pH 6.5, 1 mM Mg acetate, 0.5 mM EGTA, 5 mM 2-mercaptoethanol, 0.02% Tween 20, 10% glycerol buffer for 2 hours at room temperature in the presence of GSK3beta. In a third protocol: 7.5 μM of prephosphorylated GS1 peptide and 10 μM ATP (containing 300,000 cpm of ^33P-ATP) were incubated in 50 mM Hepes, pH 7.2, 1 mM DTT, 1 mM MgCl2, 1 mM EGTA, 0.01% Tween 20 buffer for one hour at room temperature in the presence of GSK3beta (total reaction volume: 100 microliters). In a fourth protocol: 7.5 μM of prephosphorylated GS1 peptide and 10 μM ATP (containing 300,000 cpm of ^33P-ATP) were incubated in 50 mM Hepes, pH 7.2, 1 mM DTT, 1 mM MgCl2, 1 mM EGTA, 0.01% Tween 20 buffer for 90 minutes at room temperature in the presence of commercial GSK3beta (Millipore) (total reaction volume: 100 microliters). Inhibitors were solubilised in DMSO (final solvent concentration in the reaction medium, 1%). The reaction was stopped with 100 microliters of a solution made of 25 g polyphosphoric acid (85% P2O5), 126 ml 85% H3PO4, H2O to 500 ml and then diluted to 1:100 before use. An aliquot of the reaction mixture was then transferred to Whatman P81 cation exchange filters and rinsed with the solution described above. Incorporated ^33P radioactivity was determined by liquid scintillation spectrometry. The phosphorylated GS-1 peptide had the following sequence: NH2-[…](P)EDEE-COOH. (Woodgett, J. R. (1989) Analytical Biochemistry 180, 237-241.

Structures are written as SMILES. Counter-ions that a name gives are not always drawn.

By melting point is commonly meant the temperature, or range, at which the solid turns liquid. A word on the IC50: it is the concentration needed to halve the response being measured.

Chain of GSK3β (P49841 whole entry): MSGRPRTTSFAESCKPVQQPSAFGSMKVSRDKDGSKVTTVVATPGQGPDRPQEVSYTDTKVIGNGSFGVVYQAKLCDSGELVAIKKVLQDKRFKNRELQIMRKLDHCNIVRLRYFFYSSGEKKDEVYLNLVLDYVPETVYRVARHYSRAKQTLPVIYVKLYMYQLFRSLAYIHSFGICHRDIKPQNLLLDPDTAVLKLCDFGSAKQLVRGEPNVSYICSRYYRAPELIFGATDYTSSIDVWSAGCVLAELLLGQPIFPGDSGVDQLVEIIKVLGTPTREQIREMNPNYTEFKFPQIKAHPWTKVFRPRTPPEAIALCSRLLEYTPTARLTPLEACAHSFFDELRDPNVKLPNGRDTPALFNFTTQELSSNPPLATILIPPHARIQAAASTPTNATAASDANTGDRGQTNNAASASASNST

Compound `O=C(NC1CNCCn2c1nc(-c1ccncc1)cc2=O)c1cc(F)cc2c1OCOC2` (racemic) (as salt: HCl) [Compound No. 26, (+/−)-6-Fluoro-4H-benzo[1,3]dioxine-8-carboxylic acid (4-oxo-2-pyridin-4-yl-4,5,6,7,8,9-hexahydro-1,4a,7-triaza-benzocyclohepten-9-yl)-amide] came in with a melting point of 232 to 234 °C.

In turn, `CCOC(=O)N1CCn2c(nc(-c3ccncn3)cc2=O)C(NC(=O)c2ccc3ncccc3n2)C1` (racemic) [Compound No. 1, (+/−)-9-[([1,5]Naphthyridine-2-carbonyl)-amino]-4-oxo-2-pyrimidin-4-yl-5,6,8,9-tetrahydro-4H-1,4a,7-triaza-benzocycloheptene-7-carboxylic acid ethyl ester] showed a melting point of 284 to 286 °C. For the same compound, at GSK3β, the half-inhibitory concentration (IC50) is 73 nM. For the compound `CN1CCn2c(nc(-c3ccncn3)cc2=O)C(NC(=O)c2cc(Cl)c(N)c3c2OCCO3)C1` (racemic) [compound 22, (+/−)-8-Amino-7-chloro-2,3-dihydro-benzo[1,4]dioxine-5-carboxylic acid (7-methyl-4-oxo-2-pyrimidin-4-yl-4,5,6,7,8,9-hexahydro-1,4a,7-triaza-benzocyclohepten-9-yl)-amide], the melting point was 169 to 171 °C. For the same compound, at GSK3β, the IC50 was determined as 47 nM. For `CCOC(=O)N1CCn2c(nc(-c3ccncc3)cc2=O)C(NC(=O)c2cccc3c2OCC3)C1` (racemic) [compound 8, (+/−)-9-[(2,3-Dihydro-benzofuran-7-carbonyl)-amino]-4-oxo-2-pyridin-4-yl-5,6,8,9-tetrahydro-4H-1,4-a,7-thaza-benzocycloheptene-7-carboxylic acid ethyl ester], the melting point is 284 to 286 °C. Besides, on GSK3β, half-maximal inhibition (IC50) was put at 109 nM.

`O=C(NC1CNCCn2c1nc(-c1ccncc1)cc2=O)c1cc(F)cc2c1OCOC2` (racemic) [Compound No. 26, (+/−)-6-Fluoro-4H-benzo[1,3]dioxine-8-carboxylic acid (4-oxo-2-pyridin-4-yl-4,5,6,7,8,9-hexahydro-1,4a,7-triaza-benzocyclohepten-9-yl)-amide]: it took 12 nM to reach half-maximal inhibition on GSK3β (IC50).
